Assay results: the NIST ThermoML archive (doi:10.1016/j.jct.2019.02.010)

What was measured:
[1] = xn = mol fraction of the nth substance listed; settings: for viscosity / mass density: 101.3 kPa, Liquid; for viscosity: Falling or rolling sphere viscometry; for mass density: Vibrating tube method; for surface tension liquid-gas: 298.15 K, Ring tensiometer
[2] = 101.33 kPa; for viscosity: Falling or rolling sphere viscometry; for mass density: Vibrating tube method

CC(=O)CCC(=O)O [4-oxopentanoic acid] + C[N+](C)(C)CCO.[Cl-]
[1], x2 = 0.333
Settings | mass density [kg/m3] | viscosity [mPa·s]
293.15 K | 1141.9 | 362.08
303.15 K | 1135.2 | 183.72
313.15 K | 1128.5 | 103.46
323.15 K | 1121.9 | 62.8
333.15 K | 1115.3 | 39.59

Settings | surface tension liquid-gas [mN/m]
[1], x2 = 0.333 | 39.95

C[N+](C)(C)CCO.[Cl-] [choline chloride] + OCCO
[1], x1 = 0.334
Settings | mass density [kg/m3] | viscosity [mPa·s]
293.15 K | 1119.5 | 58.81
303.15 K | 1113.9 | 38.9
313.15 K | 1108.1 | 27.04
323.15 K | 1102.5 | 19.74
333.15 K | 1096.9 | 14.69

Settings | surface tension liquid-gas [mN/m]
[1], x1 = 0.334 | 45.66

CCCCO [butan-1-ol]
[2], Liquid
Settings | mass density [kg/m3] | viscosity [mPa·s]
293.15 K | 809.5 | 2.95
303.15 K | 801.9 | 2.28
313.15 K | 794.1 | 1.79
323.15 K | 786.2 | 1.42
333.15 K | 778.1 | 1.15

CC(=O)CCC(=O)O [4-oxopentanoic acid]
[2], Metastable liquid
Settings | mass density [kg/m3]
293.15 K | 1140.1
303.15 K | 1131.6
313.15 K | 1123
323.15 K | 1114.5
333.15 K | 1105.9
343.15 K | 1097.4

C[N+](C)(C)CCO.[Cl-] [choline chloride] + Oc1ccccc1
[1], x1 = 0.333
Settings | mass density [kg/m3] | viscosity [mPa·s]
293.15 K | 1099.4 | 129.98
303.15 K | 1093.4 | 74
313.15 K | 1087.4 | 44.33
323.15 K | 1081.5 | 30.23
333.15 K | 1075.6 | 21.5

Settings | surface tension liquid-gas [mN/m]
[1], x1 = 0.333 | 35.46
